Laboratory results reported in patent US8754226B2, “Piperidinyl-substituted lactams as GPR119 modulators” (Array BioPharma Inc., priority 2010, dated 2014).

Test system: modified version of the GPR119 receptor (94% identity to human receptor)
Test: cAMP production assay (LANCE cAMP kit, TR-FRET) in HEK-293 cells
Assay type: cell-based
Settings: for cAMP production in HEK-293 cells: HEK-293 cells stably expressing modified GPR119, test compounds 0.2 nM to 10 μM, one-hour incubation at ambient temperature; for Fold over baseline: increase in cAMP relative to basal levels, agonist activity if 1.5-fold or greater
Outline: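 Doxycycline-induced (1 μg/mL, overnight) HEK-293 cells expressing modified GPR119 were thawed, 2000 cells/well, and exposed to compounds (0.2 nM-10 μM final, 0.5% DMSO) for 1 h at ambient temperature in HBSS/HEPES/BSA. cAMP was measured by LANCE TR-FRET against a standard curve. Agonism was defined as ≥1.5-fold over basal.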

| SMILES | cAMP production in HEK-293 cells | Fold over baseline |
| --- | --- | --- |
| CS(=O)(=O)c1ccc(N[C@H]2CCN(C3CCN(c4cnc(Cl)cn4)CC3)C2=O)cn1 [Example 131, (S)-1-(1-(5-chloropyrazin-2-yl)piperidin-4-yl)-3-(6-(methylsulfonyl)pyridin-3-ylamino)pyrrolidin-2-one] | 24.8 nmol | 3.8 |
| CS(=O)(=O)c1cc(F)c(N[C@H]2CCCCN(C3CCN(c4nccnc4C#N)CC3)C2=O)cc1F.Cl [Example 85, (S)-3-(4-(3-(2,5-difluoro-4-(methylsulfonyl)phenylamino)-2-oxoazepan-1-yl)piperidin-1-yl)pyrazine-2-carbonitrile hydrochloride] | 6.5 nmol | 1.9 |
| CS(=O)(=O)c1ccc(O[C@H]2CCN(C3CCN(c4ncc(Cl)cc4F)CC3)C2=O)c(F)c1 [Example 139, (S)-1-(1-(5-chloro-3-fluoropyridin-2-yl)piperidin-4-yl)-3-(2-fluoro-4-(methylsulfonyl)phenoxy) pyrrolidin-2-one] | 26.6 nmol | 5.0 |
| CS(=O)(=O)c1ccc(N[C@H]2CCN(C3CCN(c4ncc(C#N)cn4)CC3)C2=O)c(F)c1 [Example 8, (S)-2-(4-(3-(2-fluoro-4-(methylsulfonyl)phenylamino)-2-oxopyrrolidin-1-yl)piperidin-1-yl)pyrimidine-5-carbonitrile] | 8.6 nmol | 2.5 |
